Patent US5320825A, “Serotonin reuptake inhibitors for S.P.E.C.T. imaging” (Trustees of the University of Pennsylvania, priority 1991, dated 1994)
Where a name gives a salt, the structure may show the parent alone. Read-outs that look alike come from different tables or passages of the source.

Key:
[1] = for Biodistribution, Blood / Biodistribution, Brain / Biodistribution, Heart / Biodistribution, Kidney / Biodistribution, Liver / Biodistribution, Lung / Biodistribution, Muscle / Biodistribution, Skin / Biodistribution, Spleen / Biodistribution, Thyroid: rat, iv
rat brain sections = conditions: ex vivo autoradiography, 2 hr. post i.v. injection, paroxetine 10 mg/Kg, i.p.
[2] = tested on: prefrontal cortex membrane of rat brain; conditions: in vitro
[3] = molecular target: dopamine (DA) reuptake system; conditions: read-out: Inhibition of monoamine uptake, DA (Ki), cited from earlier work
[4] = molecular target: norepinephrine (NE) reuptake system; conditions: rat synaptosomes; read-out: Inhibition of monoamine uptake, NE (Ki); cited from earlier work
[5] = molecular target: serotonin reuptake system (5-HT); conditions: read-out: Inhibition of monoamine uptake, 5-HT (Ki), cited from earlier work
serotonin reuptake sites = molecular target: T1, serotonin reuptake sites (Rattus norvegicus, UniProt P31652); assay: in vitro competitive binding assay, serotonin uptake sites, [3H]-Paroxetine
T1 construct: in rat brain tissue preparation; from tissue
T1 sequence (P31652 whole entry): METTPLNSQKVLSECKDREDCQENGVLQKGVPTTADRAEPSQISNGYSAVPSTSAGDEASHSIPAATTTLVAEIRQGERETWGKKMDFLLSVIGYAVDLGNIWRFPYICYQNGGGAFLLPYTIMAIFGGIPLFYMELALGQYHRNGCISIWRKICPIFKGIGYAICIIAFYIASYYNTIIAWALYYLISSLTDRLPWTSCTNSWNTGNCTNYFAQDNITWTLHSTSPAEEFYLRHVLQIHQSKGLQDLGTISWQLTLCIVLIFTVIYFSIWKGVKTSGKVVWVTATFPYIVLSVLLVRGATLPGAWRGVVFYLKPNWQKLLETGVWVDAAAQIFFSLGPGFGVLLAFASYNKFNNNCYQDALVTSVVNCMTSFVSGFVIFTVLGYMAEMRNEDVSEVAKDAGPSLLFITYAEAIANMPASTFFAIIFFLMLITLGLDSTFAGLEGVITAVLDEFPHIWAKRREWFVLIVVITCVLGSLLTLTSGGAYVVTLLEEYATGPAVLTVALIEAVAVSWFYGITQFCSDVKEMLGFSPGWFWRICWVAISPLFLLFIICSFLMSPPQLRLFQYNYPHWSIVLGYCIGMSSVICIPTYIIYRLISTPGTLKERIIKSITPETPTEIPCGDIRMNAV
Source text: (§1) The affinity of the compounds prepared in Examples 1-4 to serotonin and norepinephrine uptake sites was studied using in vitro competitive binding assays.

[6] = molecular target: norepinephrine reuptake sites (Rattus norvegicus, UniProt Q63380); assay: in vitro competitive binding assay, norepinephrine uptake sites, [3H]-Nisoxetine; conditions: rat brain tissue preparation
Chain of norepinephrine reuptake sites (Q63380 1-617): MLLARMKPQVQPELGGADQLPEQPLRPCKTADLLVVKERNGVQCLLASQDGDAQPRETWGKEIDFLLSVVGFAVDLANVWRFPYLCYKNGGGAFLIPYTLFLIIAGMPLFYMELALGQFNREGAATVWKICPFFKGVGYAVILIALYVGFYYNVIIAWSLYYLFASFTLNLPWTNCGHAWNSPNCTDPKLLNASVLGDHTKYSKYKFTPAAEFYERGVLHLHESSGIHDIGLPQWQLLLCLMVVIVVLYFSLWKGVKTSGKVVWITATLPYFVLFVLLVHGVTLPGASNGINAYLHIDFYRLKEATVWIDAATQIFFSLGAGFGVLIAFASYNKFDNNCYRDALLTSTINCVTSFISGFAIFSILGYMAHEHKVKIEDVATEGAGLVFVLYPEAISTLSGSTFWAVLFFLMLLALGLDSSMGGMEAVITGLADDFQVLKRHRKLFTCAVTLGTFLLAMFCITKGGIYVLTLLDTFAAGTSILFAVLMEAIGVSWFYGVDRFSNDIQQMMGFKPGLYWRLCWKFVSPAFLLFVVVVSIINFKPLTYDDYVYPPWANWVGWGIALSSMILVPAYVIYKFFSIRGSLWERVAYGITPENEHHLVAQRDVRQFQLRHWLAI
Source text: as §1

[7] = Biodistribution of compound 7 in rats after an iv injection; type: in vivo; conditions: rat
Method: The biodistribution of [R]-(-)-N-methyl-3-phenyl-3-(4-^123 I-2-methylphenoxy)propylamine hydrochloride (compound 7) in rats, after intravenous injection, was analyzed. Results are presented in Table 4 and indicate that moderate brain uptake (0.64-0.84% dose/organ) is found consistently throughout the two hour period.

[8] = n = 3, 2nd time column (time not given)
[9] = n = 3, 4th time column (time not given)

CNCCC(Oc1ccc(C(F)(F)F)cc1)c1ccc([125I])cc1 (racemic) [Compound 15, iodo-fluoxetine]
initial brain uptake ([1]; 2 min.): 0.68 % dose/organ
brain retention ([1]; 8 hr.): 0.63 % dose/organ
Biodistribution, Blood ([1]; 2 min.): 3.03 ± 0.40 % dose/organ
Biodistribution, Brain ([1]; 2 min.): 0.61 ± 0.12 % dose/organ
Biodistribution, Heart ([1]; 2 min.): 2.27 ± 0.31 % dose/organ
Biodistribution, Kidney ([1]; 2 min.): 4.16 ± 0.36 % dose/organ
Biodistribution, Liver ([1]; 2 min.): 15.92 ± 2.41 % dose/organ
Biodistribution, Lung ([1]; 2 min.): 11.09 ± 2.32 % dose/organ
Biodistribution, Muscle ([1]; 2 min.): 12.71 ± 5.3 % dose/organ
Biodistribution, Skin ([1]; 2 min.): 4.90 ± 0.50 % dose/organ
Biodistribution, Spleen ([1]; 2 min.): 0.61 ± 0.06 % dose/organ
Biodistribution, Thyroid ([1]; 2 min.): 0.10 ± 0.04 % dose/organ
Biodistribution, Blood ([1]; 15 min.): 1.71 ± 0.31 % dose/organ
Biodistribution, Brain ([1]; 15 min.): 0.68 ± 0.02 % dose/organ
Biodistribution, Heart ([1]; 15 min.): 1.14 ± 0.04 % dose/organ
Biodistribution, Kidney ([1]; 15 min.): 4.05 ± 0.44 % dose/organ
Biodistribution, Liver ([1]; 15 min.): 16.27 ± 2.35 % dose/organ
Biodistribution, Lung ([1]; 15 min.): 6.77 ± 0.25 % dose/organ
Biodistribution, Muscle ([1]; 15 min.): 16.01 ± 4.55 % dose/organ
Biodistribution, Skin ([1]; 15 min.): 5.84 ± 0.95 % dose/organ
Biodistribution, Spleen ([1]; 15 min.): 0.93 ± 0.15 % dose/organ
Biodistribution, Thyroid ([1]; 15 min.): 0.07 ± 0.03 % dose/organ
Biodistribution, Blood ([1]; 60 min.): 3.16 ± 0.36 % dose/organ
Biodistribution, Brain ([1]; 60 min.): 0.78 ± 0.01 % dose/organ
Biodistribution, Heart ([1]; 60 min.): 0.43 ± 0.05 % dose/organ
Biodistribution, Kidney ([1]; 60 min.): 2.32 ± 0.38 % dose/organ
Biodistribution, Liver ([1]; 60 min.): 17.64 ± 1.88 % dose/organ
Biodistribution, Lung ([1]; 60 min.): 7.32 ± 0.45 % dose/organ
Biodistribution, Muscle ([1]; 60 min.): 22.63 ± 4.48 % dose/organ
Biodistribution, Skin ([1]; 60 min.): 10.76 ± 2.85 % dose/organ
Biodistribution, Spleen ([1]; 60 min.): 1.20 ± 0.13 % dose/organ
Biodistribution, Thyroid ([1]; 60 min.): 0.08 ± 0.01 % dose/organ
Biodistribution, Blood ([1]; 120 min.): 3.62 ± 0.24 % dose/organ
Biodistribution, Brain ([1]; 120 min.): 0.84 ± 0.073 % dose/organ
Biodistribution, Heart ([1]; 120 min.): 0.48 ± 0.02 % dose/organ
Biodistribution, Kidney ([1]; 120 min.): 1.82 ± 0.21 % dose/organ
Biodistribution, Liver ([1]; 120 min.): 11.55 ± 0.78 % dose/organ
Biodistribution, Lung ([1]; 120 min.): 7.21 ± 0.36 % dose/organ
Biodistribution, Muscle ([1]; 120 min.): 24.22 ± 0.68 % dose/organ
Biodistribution, Skin ([1]; 120 min.): 10.08 ± 0.78 % dose/organ
Biodistribution, Spleen ([1]; 120 min.): 1.09 ± 0.07 % dose/organ
Biodistribution, Thyroid ([1]; 120 min.): 0.10 ± 0.02 % dose/organ
Biodistribution, Blood ([1]; 240 min.): 4.99 ± 0.70 % dose/organ
Biodistribution, Brain ([1]; 240 min.): 0.70 ± 0.031 % dose/organ
Biodistribution, Heart ([1]; 240 min.): 0.28 ± 0.01 % dose/organ
Biodistribution, Kidney ([1]; 240 min.): 1.18 ± 0.17 % dose/organ
Biodistribution, Liver ([1]; 240 min.): 11.52 ± 0.91 % dose/organ
Biodistribution, Lung ([1]; 240 min.): 7.57 ± 2.36 % dose/organ
Biodistribution, Muscle ([1]; 240 min.): 20.38 ± 2.67 % dose/organ
Biodistribution, Skin ([1]; 240 min.): 8.27 ± 0.75 % dose/organ
Biodistribution, Spleen ([1]; 240 min.): 0.71 ± 0.11 % dose/organ
Biodistribution, Thyroid ([1]; 240 min.): 0.14 ± 0.001 % dose/organ
Biodistribution, Blood ([1]; 480 min.): 7.61 ± 1.11 % dose/organ
Biodistribution, Brain ([1]; 480 min.): 0.61 ± 0.07 % dose/organ
Biodistribution, Heart ([1]; 480 min.): 0.32 ± 0.03 % dose/organ
Biodistribution, Kidney ([1]; 480 min.): 1.11 ± 0.06 % dose/organ
Biodistribution, Liver ([1]; 480 min.): 16.47 ± 2.03 % dose/organ
Biodistribution, Lung ([1]; 480 min.): 5.00 ± 0.46 % dose/organ
Biodistribution, Muscle ([1]; 480 min.): 19.90 ± 2.61 % dose/organ
Biodistribution, Skin ([1]; 480 min.): 10.78 ± 0.07 % dose/organ
Biodistribution, Spleen ([1]; 480 min.): 0.52 ± 0.048 % dose/organ
Biodistribution, Thyroid ([1]; 480 min.): 0.22 ± 0.06 % dose/organ
initial heart uptake ([1]; rats, 2 min. post injection): 2.3%
heart uptake ([1]; rats, 8 hr. post injection): 0.3%
regional distribution pattern in rat brain sections, effect of paroxetine pretreatment (rat brain sections): not altered by pretreatment of paroxetine
non-specific binding [2]: strong non-specific binding

CN[C@@H]1C[C@H](c2ccc(Cl)c(Cl)c2)c2ccccc21 (relative stereo) [Indatraline cis, Indatraline]
Ki [3]: 860 nM
Ki [4]: 34 nM
Ki [5]: 0.03 nM

CN[C@@H]1C[C@@H](c2ccc(Cl)c(Cl)c2)c2ccccc21 (relative stereo) [Indatraline trans, Indatraline]
Ki [3]: 2000 nM
Ki [4]: 90 nM
Ki [5]: 0.58 nM

CNCC[C@@H](Oc1cccc(I)c1)c1ccccc1 [Compound 4, [R]-(-)-N-Methyl-3-phenyl-3-(3-iodophenoxy)propylamine]
Ki (serotonin reuptake sites): 0.8 nM
IC50 [6]: 500 nM

CNCC[C@@H](Oc1ccc(I)cc1C)c1ccccc1.Cl [Compound 7, [R]-(-)-N-Methyl-3-phenyl-3-(4-iodo-2-methylphenoxy)propylamine hydrochloride]
Biodistribution, Blood [7, 8]: 2.19 ± 0.32 % dose/organ
Biodistribution, Brain [7, 8]: 0.80 ± 0.04 % dose/organ
Biodistribution, Heart [7, 8]: 0.55 ± 0.04 % dose/organ
Biodistribution, Kidney [7, 8]: 2.70 ± 0.48 % dose/organ
Biodistribution, Lung [7, 8]: 9.36 ± 1.52 % dose/organ
Biodistribution, Skin [7, 8]: 6.75 ± 1.35 % dose/organ
Biodistribution, Spleen [7, 8]: 1.09 ± 0.32 % dose/organ
Biodistribution, Thyroid [7, 8]: 0.07 ± 0.02 % dose/organ
Biodistribution, Blood [7, 9]: 2.39 ± 0.33 % dose/organ
Biodistribution, Brain [7, 9]: 0.68 ± 0.01 % dose/organ
Biodistribution, Kidney [7, 9]: 1.12 ± 0.44 % dose/organ
Biodistribution, Lung [7, 9]: 6.81 ± 0.76 % dose/organ
Biodistribution, Skin [7, 9]: 6.92 ± 0.83 % dose/organ
Biodistribution, Spleen [7, 9]: 0.79 ± 0.05 % dose/organ
brain uptake ([7]; throughout the two hour period): 0.64-0.84 % dose/organ
Ki (serotonin reuptake sites): 5 nM
IC50 [6]: 20 nM

CNCC[C@H](Oc1cccc(I)c1)c1ccccc1 [Compound 11, [S]-(+)-N-Methyl-3-phenyl-3-(3-iodophenoxy)propylamine]
Ki (serotonin reuptake sites; rat brain tissue preparation, [3H]-Paroxetine, read-out: Serotonin Uptake [3H]-Paroxetine Ki): 8.2 nM
IC50 [6]: 7000 nM

CNCC[C@H](Oc1ccc(I)cc1C)c1ccccc1 [Compound 14, {S}-(+)-N-Methyl-3-phenyl-3-(4-iodo-2-methylphenoxy)propylamine hydrochloride]
Ki (serotonin reuptake sites): 0.8 nM
IC50 [6]: 9 nM

CNCCC(Oc1ccc(C(F)(F)F)cc1)c1ccccc1 (stereo not shown) [Fluoxetine]
Ki [3]: 1590 nM

CNCCC(Oc1ccccc1OC)c1ccccc1 (stereo not shown) [Nisoxetine]
Ki ([3]; rat synaptosomes): 365 nM
Ki [4]: 670 nM
Ki ([5]; rat synaptosomes): 3.8 nM

Fc1ccc([C@@H]2CCNC[C@H]2COc2ccc3c(c2)OCO3)cc1 [Paroxetine]
Ki [4]: 350 nM

CN[C@@H]1CC[C@@H](c2ccccc2)c2ccccc21 [Tametraline]
Ki ([3]; rat synaptosomes): 60 nM
Ki [4]: 20 nM
Ki ([5]; rat synaptosomes): 50 nM
